# According to US5965539A, “Inhibitors of prenyl transferases” (Univeristy of Pittsburgh, priority 1996, dated 1999):
# Read-outs that look alike come from different tables or passages of the source.
# What was measured:
# K-Ras4B processing = K-Ras4B processing assay in NIH 3T3 cells overexpressing oncogenic K-Ras4B; assay type: cell-based; settings: for IC50: Mus musculus, NIH3T3, whole cells
# Excerpt: H-Ras cells (45) and K-Ras4B Cells (32) were kind gifts from Dr. Channing Der and Dr. Adrienne Cox (University of North Carolina, Chapel Hill). Means of obtaining these cell lines will be easily recognized by the skilled practitioner.
# [1] = tested on: oncogenic K-Ras4B activation of MAP kinase; assay: Oncogenic K-Ras4B activation of MAP kinase, immunoblot; assay type: cell-based
# Excerpt: (§1) Equal amounts of protein were separated on a 15% SDS-PAGE, transferred to nitrocellulose, and immunoblotted using an anti-MAP kinase antibody (erk2, monoclonal, UB1, Lake Placid, N.Y.). Antibody reactions were visualized using peroxidase-conjugated donkey anti-mouse IgG (Jackson ImmunoResearch Laboratories Inc., West Grove, Pa.) and an enhanced chemiluminescence detection system (ECL, Amersham Corp.)
# Rap1A processing [2] = assay: Rap1A processing assay in NIH 3T3 cells overexpressing oncogenic H-Ras, immunoblot; assay type: cell-based; settings: whole cells; for IC50: Mus musculus, NIH3T3
# Description: (§2) H-RasF cells (45) were seeded on day 0 in 100 mm Dishes (costar) in Dulbecco's modified Eagles medium (GIBCO) and allowed to grow to 40-60% confluency. […] On day 3, cells were washed one time with ice cold PBS and were collected and lysed by incubation for 30-60 min on ice in lysis buffer (41). Lysates were cleared (14,000 rpm, 4° C., 15 min) and supernatants collected. Equal amounts of lysate were separated on a 12.5% SDS-PAGE, transfered to nitrocellulose, and a western blot performed using a anti-Ras antibody (Y13-238, ATCC) or anti-Rap1A antibody (Santa Cruz Biotechnology, Santa Cruz, Calif.). Antibody reactions were visualized using peroxidase-conjugated goat anti-rat IgG for Y13-238 and peroxidase-conjugated goat anti-rabbit IgG for Rap1A and an enhanced chemiluminescence detection system (ECL; Amersham Corp.)
# (§3) H-Ras cells (45) and K-Ras4B Cells (32) were kind gifts from Dr. Channing Der and Dr. Adrienne Cox (University of North Carolina, Chapel Hill). Means of obtaining these cell lines will be easily recognized by the skilled practitioner. Cells were seeded on day 0 in 100 mm dishes in Dulbecco's modified Eagles medium supplemented with 10% calf serum and 1% penicillin-streptomycin. […] On day 3, cells were washed and lysed in lysis buffer containing 50 mM HEPES, pH 7.5, 10 mM NaCl, 1% TX-100, 10% glycerol, 5 mM MgCl2, 1 mM EGTA, 25 μg/ml leupeptin, 2 mM PMSF, 2 mM Na3 VO4, 1 mg/ml soybean trypsin inhibitor, 10 μg/ml aprotinin, 6.4 mg/ml Sigma-104® phosphatase substrate. Lysates were cleared (14,000 rpm, 4° C., 15 min) and equal amounts of protein were separated on a 12.5% SDS-PAGE, transferred to nitrocellulose, and immunoblotted using an anti-Ras antibody (Y13-259, ATCC) or an anti-RapIA antibody (SC-65, Santa Cruz Biotechnology, Santa Cruz, Calif.). Antibody reactions were visualized using either peroxidase-conjugated goat anti-rat 1 gG (for Y13-259), or peroxidase-conjugated goat anti-rabbit 1 gG (for Rap1A) and an enhanced chemiluminescence detection (ECL, Amersham Corp.), as described previously (41).
# H-Ras processing = assay: Ras processing assay in H-RasF cells (NIH 3T3 transformed with oncogenic H-Ras-CVLS), immunoblot; assay type: cell-based; settings: for IC50: Mus musculus, NIH3T3, whole cells
# Description: as §2, §3
# [3] = tested on: oncogenic H-Ras activation of MAPK; assay: Oncogenic H-Ras activation of MAP kinase, immunoblot; assay type: cell-based; settings: 0-30 μM, FIG. 20
# Excerpt: as §1
# [4] = tested on: K-Ras4B transformed NIH-3T3 cells; assay: Nude mouse xenograft, K-Ras4B transformed NIH-3T3 cells; assay type: in vivo, nude mice; settings: for tumor size: two weeks
# Description: In contrast, tumors from animals treated once daily with GGTI-286 (25 mg/kg or 50 mg/kg) grew to a size of 1600 mm^3 or 900 mm^3, respectively (FIG. 22).
# [5] = Excerpt: (§4) In this model, tumors from two human lung carcinoma cell lines are implanted subcutaneously. One of these (Calu-1) harbors a K-Ras oncogenic mutation and has a deletion of the tumor suppressor gene p53. The other human lung carcinoma ([…]) has no Ras mutations.
# [6] = tested on: NCI-H810 human lung carcinoma; settings: 50 mg/kg once daily, 14 days of treatment
# Excerpt: (§5) Calu-1 (Panel A) and NCI-H810 cells (Panel B) were purchased from ATCC and grown in McCoy's 5A medium in 10% FBS (Fetal Bovine Serum) and RPMI 1640 in 10% FBS, respectively. The cells were harvested, resuspended in PBS and injected s.c. into the right and left flank of 8 week old female nude mice (10^7 cells/flank). Nude mice (Harlan Sprague Dawley, Indianapolis, Ind.) were maintained in accordance with the Institutional Animal Care and Use Committee (IACUC) procedures and guidelines. On day 32 after s.c. implantation of tumors, animals were dosed i.p. with 0.2 ml once daily for 36 days. […] The tumor volumes were determined by measuring the length (l) and the width (w) and calculating the volume (V=(l)×(w)^2 /2). Data are presented as the average volume of eight tumors in each group for each cell line. Statistical significance between control and treated groups were evaluated by using student t test (*P<0.05).
# [7] = tested on: Raf-transformed NIH 3T3 cells; settings: 50 mg/kg once daily
# [8] = tested on: Calu-1 human lung carcinoma
# Excerpt: as §5, §4
# Ras processing = settings: 10 to 100 mg/kg, 5 hrs after last injection
# Description: (§6) A. Antitumor efficacy was carried out as described in FIG. 3 except that animals were randomly assigned to four groups each of 4 mice each (2 tumors per mouse). […] B. Ras processing was carried out 5 hours after the last treatement on day 17. Tumors were extracted from the animals, tissumized, and lysed in lysis buffer as described in FIG. 1. Lysates (25 μg) were electrophoresed on a 12.5% SDS-PAGE and immunoblotted with anti-Ras antibody Y13-238 as described previously. The blots were then reprobed with anti-Rap1A antibody (Santa Cruze Biotechnologies, Santa Cruz, Calif.).
# (§7) The tumor sizes at the end of 17 days were 2490 mm^3 for saline, 1793 mm^3 for 10 mg/kg, 1226 mm^3 for 50 mg/kg and 624 mm^3 for 100 mg/kg treated animals. […] Tumors from control animals contained only fully processed Ras which migrates faster in SDS-PAGE gels (FIG. 11B). […] Thus, the extent of tumor growth inhibition correlated with the extent of inhibition of Ras processing.
# [9] = tested on: H-RasF transformed NIH 3T3 cells
# Description: as §6, §7
# Rap1A processing [10] = settings: 100 mg/kg
# Description: as §6, §7
# GGTase I = target: T1, GGTase I (Homo sapiens, UniProt P53609); assay: GGTase I activity assay: transfer of [3H]geranylgeranyl to recombinant H-Ras-CVLL, Daudi 60,000xg supernatant; assay type: biochemical
# T1 construct: FTase and GGTase I activities from 60,000×g supernatants of human Burkitt lymphoma (Daudi) cells; endogenous in cells; host or cells: human Burkitt lymphoma (Daudi) cells, 60,000xg supernatant (partially purified)
# T1 sequence (P53609 whole entry): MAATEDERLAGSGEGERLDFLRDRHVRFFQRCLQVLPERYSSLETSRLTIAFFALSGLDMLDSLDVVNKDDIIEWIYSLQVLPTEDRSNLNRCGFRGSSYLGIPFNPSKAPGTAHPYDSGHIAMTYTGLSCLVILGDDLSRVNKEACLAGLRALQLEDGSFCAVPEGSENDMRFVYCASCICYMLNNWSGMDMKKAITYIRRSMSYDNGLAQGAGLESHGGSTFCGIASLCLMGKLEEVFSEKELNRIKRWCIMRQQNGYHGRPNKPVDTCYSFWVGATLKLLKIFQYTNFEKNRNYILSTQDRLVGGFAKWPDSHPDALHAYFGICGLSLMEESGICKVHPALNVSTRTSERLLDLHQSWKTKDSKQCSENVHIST
# Description: FTase and GGTase I activities from 60,000×g supernatants of human Burkitt lymphoma (Daudi) cells (ATCC, Rockville, Md., USA) were assayed as described previously for FTase (41). Briefly, 100 μg of the supernatant was incubated in 50 mM Tris, pH 7.5, 50 μM ZnCl2, 20 mM KCl and 1 mM dithiothreitol (DTT). The reaction was incubated at […] for 30 min with recombinant Ha-Ras-CVLS (11 μM) and [^3 H]FPP (625 nM; 16.3 Ci/mmol) for FTase, and recombinant Ha-Ras-CVLL (5 μM) and [^3 H]geranylgeranylpyrophosphate (525 nM; 19.0 Ci/mmol) for GGTase I. The peptidomimetics were mixed with FTase and GGTase before adding to the reaction mixture.
# Human Burkitt lymphoma (Daudi) cells (ATCC, Rockville, Md.) were grown in suspension in RPMI 1640 medium containing 10% fetal bovine serum (FBS) and 1% Pen-Strep in a humidified 10% CO2 incubator at 37° C. The cells were harvested and sonicated in 50 mM Tris, pH 7.5, 1 mM EDTA, 1 mM EGTA, 25 μg/ml leupeptin, 1 mM phenylmethylsulfonyl fluoride. Homogenates were then spun at 12,000×g and the resulting supernatant further spun at 60,000×g. The supernatant was assayed for both FTase and GGTase I. Briefly, 100 μg of the supernatants was incubated in 50 mM Tris, pH 7.5, 50 μM ZnCl2, 20 mM KCl, 3 mM MgCl2 and 1 mM DTT. For FTase assays, the reaction was incubated at 37° C. for 30 minutes with recombinant H-Ras-CVLS (11 μM) and [^3 H] FPP (625 nM; 16.3 Ci/mmol). For GGTase assays, the reaction was also incubated for 30 minutes at 37° C. but with recombinant H-Ras-CVLL (5 μM) and [^3 H] GGPP (525 nM; 19.0 Ci/mmol). The reaction was stopped and passed through glass fiber filters to separate free and incorporated label. For inhibition studies, the peptidomimetics were premixed with FTase or GGTase I prior to adding the remainder of the reaction mixture. Recombinant H-Ras-CVLS was prepared as described previously (26) from bacteria (31). Recombinant H-Ras-CVLL was prepared from bacteria (32).
# FTase and GGTase I activities from 60,000×g supernatants of human Burkitt lymphoma (Daudi) cells (ATCC, Rockville, Md.) were assayed exactly as described previously for FTase (41). Inhibition studies were performed by determining the ability of Ras CAAX peptidomimetics to inhibit the transfer of [^3 H]-farnesyl and [^3 H]-geranylgeranyl from [^3 H]FPP and [^3 H]GGPP to H-ras-CVLS and H-Ras-CVLL, respectively (41).
structure (smiles),measurement,setting,value
"COC(=O)[C@H](CC(C)C)NC(=O)c1ccc(NC[C@@H](N)CS)cc1-c1ccccc1.Cl [GGTI-286, 4-[2(R)-amino-3-mercaptopropyl]amino-2-phenylbenzoyl-(S)-leucine methyl ester hydrochloride]",concentrations inhibiting K-Ras4B processing that had no effect on processing of farnesylated H-Ras,K-Ras4B processing,1 to 3 µM
same,IC50,"K-Ras4B processing; Table 5, read-out: In Vivo Processing IC50 K-Ras",2 µM
same,IC50,K-Ras4B processing; read-out: K-Ras4B processing IC50,2 µM
same,concentration of complete block of K-Ras4B MAP kinase activation,[1],10 µM
same,IC50,"[1]; read-out: IC50, inhibition of K-Ras4B MAP kinase activation",1 µM
same,IC50,"Rap1A processing [2]; Table 5, read-out: In Vivo Processing IC50 Rap1A",2 µM
same,IC50,Rap1A processing [2]; read-out: Rap1A processing IC50,2 µM
same,selectivity for inhibition of geranylgeranylation over farnesylation processing,Rap1A processing [2],more than 15 fold
same,concentration needed for accumulation of unprocessed H-Ras,H-Ras processing; FIG. 18,≥ 30 µM
same,IC50,"H-Ras processing; Table 5, read-out: In Vivo Processing IC50 H-Ras",> 30 µM
same,IC50,H-Ras processing; read-out: H-Ras processing IC50,> 30 µM
same,inhibition of oncogenic H-Ras activation of MAP kinase,[3],inhibited only slightly
same,inhibition of tumor growth,[4]; 25 mg/kg once daily,50%
same,tumor size,[4]; 25 mg/kg once daily,1600 mm^3
same,inhibition of tumor growth,[4]; 50 mg/kg once daily,70%
same,tumor size,[4]; 50 mg/kg once daily,900 mm^3
"CSCC[C@H](NC(=O)c1ccc(NC[C@@H](N)CS)cc1-c1ccccc1)C(=O)O [FTI-276, 4-N-[2(R)-Amino-3-mercaptopropyl]amino-2-phenylbenzoyl methionine]",weight loss,[5]; 50 mg/kg once daily for 36 days,no weight loss was observed
same,toxicity,[5]; dose escalated to 180 mg/kg once daily,lack of toxicity
same,average tumor size,[6],815 mm^3
same,growth of Raf-transformed NIH 3T3 cells,[7],had no effect
same,average tumor size,"[8]; 50 mg/kg i.p. once daily, 64 days from tumor implantation",113 mm^3
same,tumor growth of Calu-1,[8]; 50 mg/kg once daily,essentially blocked tumor growth
same,Ras processing in tumors,Ras processing,progressive accumulation of unprocessed Ras
same,tumor size at the end of 17 days,[9]; 10 mg/kg,1793 mm^3
same,tumor size at the end of 17 days,[9]; 50 mg/kg,1226 mm^3
same,tumor growth of H-RasF transformed NIH 3T3 cells,[9]; 50 mg/kg once daily,inhibited tumor growth
same,tumor size at the end of 17 days,[9]; 100 mg/kg,624 mm^3
same,Rap1A processing in tumors,Rap1A processing [10],did not inhibit Rap1A processing
same,IC50,"GGTase I; Table 1, read-out: GGTase I IC50",0.057 µM
same,IC50,"GGTase I; Table 5, read-out: In Vitro IC50 GGTase I",0.05 µM
same,IC50,GGTase I; read-out: GGTase I IC50,0.05 µM
